Test results taken from patent US20070218555A1, “Anti-Microbial Activity Of Biologically Stabilized Silver Nano Particles” (priority 2004, published 2007).

Assays:
[1] = tested on: Pseudomonas aeruginosa MDR strain; assay: Interaction of drugs with silver nano particles, checkerboard macrodilution (FICI); format: cell-based; conditions: drug in combination with biologically stabilized silver nano particles
Procedure: Interaction of drugs with biologically stabilized silver nano particles. A two-dimensional checkerboard macrodilution technique was used to characterize interactions between biologically stabilized silver nano particles and drug (viz. Gentamicin, Penicillin, Cefotaxime, Ceptazidime, Kanamycin, Vancomycin). six experiments were performed for Pseudomonas aeruginosa MDR strain described above. Inoculum was prepared similarly to those for susceptibility testing. Individual drug with biologically stabilized silver nano particles were diluted in serial twofold dilutions, and concentrations ranged from four fold below to four folds above the MIC. The highest dilution of the drug combination with biologically stabilized silver nano particles that inhibits the visible growth of the test organism was regarded as the fractional inhibitory concentration (FIC). The fractional inhibitory concentration (FIC) index (FICI) was used to define the interaction between the two drugs. The FICI is the sum of the FICs of each of the drugs. The FIC was calculated as follows: MIC of the drug tested in combination/MIC of the drug tested alone. The interaction was defined as synergistic if the FICI was […], as additive if the FICI was >0.5 to 1.0, as indifferent if the FICI was >1.0 to 2.0, and as antagonistic if the FICI was >2.0.

[2] = tested on: human dermal fibroblast cells; conditions: cited from earlier work

CC(C)(O/N=C(\C(=O)N[C@@H]1C(=O)N2C(C(=O)[O-])=C(C[n+]3ccccc3)CS[C@H]12)c1csc(N)n1)C(=O)O [ceptazidime]
interaction by mean FICI [1]: partially synergistic

O=[N+]([O-])[O-].[Ag+] [silver nitrate]
low concentration of silver ions showing inhibitory effect [2]: 8.2 μM/l
